What follows are compounds tested on THP-1 macrophages (assay: Effect of compounds on host cell viability (MTT)). Conditions: read-out: 24h LC50; THP1 macrophages, 24-hour incubation, MTT assay (Supplemental Table 2).
Assay type: cell-based
Description: The cells were cultured at 37C, 5% CO2 in RPMI medium (ATCC) supplemented with 10% FBS, 1% Penicillin/Streptomycin and 0.05 mM of β-mercaptoethanol. Cells were used in experiments up to passage 10.
Effect of the compounds on THP-1 cell viability measured using thiazolyl blue tetrazolium bromide which measures cell metabolic activity (MTT). THP-1 cells were seeded in a 96 well plate (25,000 cells/well) overnight then differentiated with 150 nM phorbol 12-myristate 13-acetate (PMA) over 72 hours. Macrophages were then treated with compounds resuspended in RPMI media (1- 50 μM) for 24 hours. Media was replaced with thiazolyl blue tetrazolium bromide solubilized in RPMI media (0.5 mg/mL) and incubated at 37°C for 2 hours. The reduced formazan crystals were solubilized with isopropyl alcohol and the absorbance of the resulting solution was measured at 560 nm with a background subtraction at 670 nm. […] This process was repeated with a 72-hr incubation and extended concentration range (1 - 300 μM) for select compounds.

SMILES | CC50
Cc1cc(C(F)(F)F)n(-c2ccc(NC3CCNC3)cc2)n1 (stereo not drawn) [Compound 284] | > 50 µM
CC(C)(C)OC(=O)NCC(=O)Nc1ccc(-n2nc(C(F)(F)F)cc2C2CCCCC2)cc1 [Compound 340] | > 50 µM
CC(C)(C)OC(=O)N1CCC(Nc2ccc(-n3nc(C(F)(F)F)cc3C3CC3)cc2)C1 (stereo not drawn) [Compound 268] | > 50 µM
Fc1cccc([C@@H]2CCCN2)c1 [Compound 278] | > 50 µM
Fc1cccc(CN2CCC(Nc3ccc(-n4nc(C(F)(F)F)cc4C4CCCCC4)cc3)CC2)c1 [Compound 322] | > 50 µM
FC(F)(F)c1ccc(-c2ccc(-c3cc(C(F)(F)F)nn3-c3ccc(NC4CCN(Cc5ccc(-c6ccccc6)cc5)C4)cc3)cc2)cc1 (stereo not drawn) [Compound 36] | > 50 µM
O=[N+]([O-])c1ccc(-n2cc(C(F)(F)F)nc2-c2ccc(-c3ccccc3)cc2)cc1 [Compound 32] | 6.3 µM
C#Cc1ccc(-c2cc(C(F)(F)F)nn2-c2ccc(N3CCNCC3)cc2)cc1 [Compound 43] | 0.5 µM
CC(C)(C)c1nc(C(F)(F)F)cn1-c1ccc(Br)cc1 [Compound 329] | > 50 µM
O=[N+]([O-])c1ccc(-n2nc(C(F)(F)F)cc2-c2ccc(Br)cc2)cc1 [Compound 37] | > 50 µM
FC(F)(F)c1ccc(-c2ccc(-c3cc(C(F)(F)F)nn3-c3ccc(NC4CCN(Cc5cccc(Cl)c5Cl)C4)cc3)cc2)cc1 (stereo not drawn) [Compound 52] | > 50 µM
NCCNC1CCN(c2ccc(-n3nc(C(F)(F)F)cc3C3CCCCC3)cc2)CC1 [Compound 418] | 12.6 µM
FC(F)(F)c1ccc(-c2ccc(-c3cc(C(F)(F)F)nn3-c3ccc(NC4CN(C(c5ccccc5)c5ccccc5)C4)cc3)cc2)cc1 [Compound 4] | > 50 µM
Oc1ccc(-n2nc(C(F)(F)F)cc2-c2ccc(-c3ccc(C(F)(F)F)cc3)cc2)cc1 [Compound 27] | > 50 µM
Fc1cccc(CN2CCC(Oc3ccc(-n4nc(C(F)(F)F)cc4C4CCCCC4)cc3)C2)c1 (stereo not drawn) [Compound 376] | > 50 µM
Fc1cccc(COC2CCN(c3ccc(-n4nc(C(F)(F)F)cc4C4CCCCC4)cc3)C2)c1 (stereo not drawn) [Compound 415] | > 50 µM
FC(F)(F)c1cc(-c2ccco2)n(-c2ccc(Br)cc2)n1 [Compound 267] | > 50 µM
CCc1cc(C(F)(F)F)nn1-c1ccc(Br)cc1 [Compound 316] | > 50 µM
NCC(=O)Nc1ccc(-n2ccnc2-c2ccc(C(F)(F)F)cc2)cc1 [Compound 406] | > 50 µM
COc1ccc(-n2nc(C(F)(F)F)cc2C2CCCCC2)cc1 [Compound 363] | > 50 µM
FC(F)(F)c1ccc(-c2ccc(-c3cc(C(F)(F)F)nn3-c3ccc(Br)cc3)cc2)cc1 [Compound 2] | > 50 µM
NCC(=O)Nc1ccc(-n2cc(C(F)(F)F)nc2-c2ccc(OC(F)(F)F)cc2)cc1 [Compound 299] | 31.6 µM
CC(C)(C)OC(=O)N1CCC(Nc2ccc(-n3nc(C(F)(F)F)cc3-c3ccc(-c4ccc(C(F)(F)F)cc4)cc3)cc2)C1 (stereo not drawn) [Compound 15] | > 50 µM
Nc1ccc(-n2nc(C(F)(F)F)cc2-c2ccc(Br)cc2)cc1 [Compound 40] | > 50 µM

SMILES | CC50
CC(C)(C)OC(=O)N1CCN(c2ccc(-n3nc(C(F)(F)F)cc3-c3ccc(C#CC(F)(F)F)cc3)cc2)CC1 [Compound 47] | > 50 µM
CCOC(=O)CNc1ccc(-n2cc(C(F)(F)F)nc2-c2ccc(C(F)(F)F)cc2)cc1 [Compound 403] | > 50 µM
FC(F)(F)c1c[nH]c(-c2ccc(-c3ccccc3)cc2)n1 [Compound 31] | > 50 µM
Nc1ccc(-n2cc(C(F)(F)F)nc2-c2ccc(Cl)cc2)cc1 [Compound 30] | > 50 µM
CC(C)c1cc(C(F)(F)F)nn1-c1ccc(NC2CCN(C(=O)OC(C)(C)C)C2)cc1 (stereo not drawn) [Compound 286] | > 50 µM
CC(C)(C)OC(=O)N1CCC(Nc2ccc(-n3nc(C(F)(F)F)cc3-c3ccccc3C(F)(F)F)cc2)C1 (stereo not drawn) [Compound 259] | 23.6 µM
Cc1cc(C(F)(F)F)nn1-c1ccc(NC2CCNC2)cc1 (stereo not drawn) [Compound 313] | > 50 µM
CCCCNc1ccc(-n2nc(C(F)(F)F)cc2-c2ccc(-c3ccc(C(F)(F)F)cc3)cc2)cc1 [Compound 57] | > 50 µM
Fc1cccc(CN2CCC(Oc3ccc(-n4nc(C(F)(F)F)cc4C4CCCCC4)cc3)CC2)c1 [Compound 372] | > 50 µM
O=C(CNCc1cccc(F)c1)Nc1ccc(-n2nc(C(F)(F)F)cc2C2CCCCC2)cc1 [Compound 352] | 29.3 µM
FC(F)(F)c1ccc(-c2cnnn2-c2ccc(NC3CCNCC3)cc2)cc1 [Compound 434] | 24.6 µM
CC(C)(C)OC(=O)N1CCC(Nc2ccc(-n3nc(C(F)(F)F)cc3C(F)(F)F)cc2)C1 (stereo not drawn) [Compound 283] | > 50 µM
FC(F)(F)c1ccc(-c2ccc(-c3cc(C(F)(F)F)nn3-c3ccc(N4CCC(NCc5ccccc5Cl)C4)cc3)cc2)cc1 (stereo not drawn) [Compound 12] | > 50 µM
CC(C)(C)OC(=O)N1CCC(Nc2ccc(-n3nc(C(F)(F)F)cc3-c3ccco3)cc2)C1 (stereo not drawn) [Compound 269] | > 50 µM
COc1ccc(-n2nc(C(F)(F)F)cc2-c2ccc(-c3ccc(C(F)(F)F)cc3)cc2)cc1 [Compound 26] | 5.8 µM
O=[N+]([O-])c1ccc(-n2nc(C(F)(F)F)cc2-c2ccc(-c3ccc(C(F)(F)F)cc3)cc2)cc1 [Compound 9] | > 50 µM
CC(=O)NCCN1CCC(Oc2ccc(-n3nc(C(F)(F)F)cc3C3CCCCC3)cc2)CC1 [Compound 417] | 24.4 µM
NCC(=O)Nc1ccc(-n2cc(C(F)(F)F)nc2C2CCCCC2)cc1 [Compound 327] | > 50 µM
N#Cc1ccc(CNC2CCN(c3ccc(-n4nc(C(F)(F)F)cc4-c4ccc(-c5ccc(C(F)(F)F)cc5)cc4)cc3)C2)cc1 (stereo not drawn) [Compound 19] | > 50 µM
CC(C)(C)OC(=O)N1CCC(Oc2ccc(-n3nc(C(F)(F)F)cc3-c3ccc(-c4ccc(C(F)(F)F)cc4)cc3)cc2)CC1 [Compound 28] | > 50 µM
N#Cc1ccc(CN2CCC(Nc3ccc(-n4nc(C(F)(F)F)cc4C4CCCCC4)cc3)CC2)cc1 [Compound 389] | > 50 µM
CCCCCCNc1ccc(-n2nc(C(F)(F)F)cc2-c2ccc(-c3ccc(C(F)(F)F)cc3)cc2)cc1 [Compound 60] | > 50 µM
N#Cc1ccc(CN2CCC(Nc3ccc(-n4nc(C(F)(F)F)cc4C4CCCCC4)cc3)C2)cc1 (stereo not drawn) [Compound 358] | 13.2 µM
NC(=O)CNc1ccc(-n2cc(C(F)(F)F)nc2-c2ccc(C(F)(F)F)cc2)cc1 [Compound 405] | > 50 µM

SMILES | CC50
Fc1cccc(CNC2CCN(c3ccc(-n4nc(C(F)(F)F)cc4C4CCCCC4)cc3)C2)c1 (stereo not drawn) [Compound 285] | > 50 µM
Cc1cc(C(F)(F)F)nn1-c1ccc(Br)cc1 [Compound 275] | > 50 µM
CC(C)(C)OC(=O)N1CCC(Oc2ccc(-n3nc(C(F)(F)F)cc3C3CCCCC3)cc2)CC1 [Compound 367] | > 50 µM
FC(F)(F)c1c[nH]c(-c2ccc(Cl)cc2)n1 [Compound 35] | > 50 µM
FC(F)(F)c1cc(-c2ccc(Cl)c(Cl)c2)n(-c2ccc(NC3CCNC3)cc2)n1 (stereo not drawn) [Compound 261] | 22.4 µM
CCc1cc(-c2ccc(-c3ccc(C(F)(F)F)cc3)cc2)n(-c2ccc(Br)cc2)n1 [Compound 280] | > 50 µM
Oc1ccc(CN2CCC(Oc3ccc(-n4nc(C(F)(F)F)cc4C4CCCCC4)cc3)CC2)cc1 [Compound 374] | 8.2 µM
FC(F)(F)c1ccc(-c2ccc(-c3cc(C(F)(F)F)nn3-c3ccc(N4CCC(NCc5cccs5)C4)cc3)cc2)cc1 (stereo not drawn) [Compound 20] | > 50 µM
O=[N+]([O-])c1ccc(-n2nc(C3CCCCC3)cc2C(F)(F)F)cc1 [Compound 335] | > 50 µM
FC(F)(F)c1ccc(-c2ccc(-c3cc(C(F)(F)F)nn3-c3ccc(N4CCC(NCc5ccc6ccccc6c5)C4)cc3)cc2)cc1 (stereo not drawn) [Compound 17] | > 50 µM
FC(F)(F)c1cc(C2CCCCC2)n(-c2ccc(OC3CCN(Cc4ccccc4)C3)cc2)n1 (stereo not drawn) [Compound 378] | > 50 µM
FC(F)(F)c1cc(C2CC2)n(-c2ccc(Br)cc2)n1 [Compound 266] | > 50 µM
Cc1cc(C(F)(F)F)n(-c2ccc(Br)cc2)n1 [Compound 274] | > 50 µM
O=[N+]([O-])c1ccc(-n2nc(C(F)(F)F)cc2-c2ccc(C#CC3CC3)cc2)cc1 [Compound 39] | > 50 µM
FC(F)(F)c1cc(C2CCCCC2)n(-c2ccc(N3CCC(OCc4ccccc4)C3)cc2)n1 (stereo not drawn) [Compound 412] | > 50 µM
CC(C)C#Cc1ccc(-c2cc(C(F)(F)F)nn2-c2ccc(N3CCC(NCc4ccc(O)cc4)C3)cc2)cc1 (stereo not drawn) [Compound 101] | 0.5 µM
Cc1ccccc1CNC1CN(c2ccc(-n3nc(C(F)(F)F)cc3-c3ccc(-c4ccc(C(F)(F)F)cc4)cc3)cc2)C1 [Compound 48] | > 50 µM
FC(F)(F)c1cn(-c2ccc(NC3CCNC3)cc2)c(-c2ccncc2)n1 (stereo not drawn) [Compound 333] | > 50 µM
Fc1ccccc1CNC1CCN(c2ccc(-n3nc(C(F)(F)F)cc3-c3ccc(-c4ccc(C(F)(F)F)cc4)cc3)cc2)C1 (stereo not drawn) [Compound 21] | > 50 µM
CCc1cc(C(F)(F)F)nn1-c1ccc(NC2CCN(C(=O)OC(C)(C)C)C2)cc1 (stereo not drawn) [Compound 317] | > 50 µM
CC(C)(C)OC(=O)NC1CN(c2ccc(-n3nc(C(F)(F)F)cc3-c3ccc(-c4ccc(C(F)(F)F)cc4)cc3)cc2)C1 [Compound 22] | > 50 µM
FC(F)(F)c1ccc(CNC2CCN(c3ccc(-n4nc(C(F)(F)F)cc4-c4ccc(-c5ccc(C(F)(F)F)cc5)cc4)cc3)C2)cc1 (stereo not drawn) [Compound 24] | > 50 µM
FC(F)(F)c1cc(C2CCCCC2)n(-c2ccc(N3CCC(OCc4ccccc4)CC3)cc2)n1 [Compound 414] | > 50 µM
O=C(CO)Nc1ccc(-n2cc(C(F)(F)F)nc2-c2ccc(C(F)(F)F)cc2)cc1 [Compound 404] | > 50 µM

Source: publication doi:10.1101/2025.11.04.686469, “Discovery of Host-Directed Small Molecules with Broad Anti-Leishmanial Efficacy” (bioRxiv, 2025)
